From patent US20090131431A1, “Pyrazolo[3,4-b]pyridine compounds, and their use as a PDE4 inhibitors” (priority 2005, published 2009)

These compounds were tested against T1, PDE4B (human recombinant) (Homo sapiens, UniProt Q07343) (assay: Inhibition of PDE4B activity: SPA and/or Fluorescence Polarisation (FP) assay). Conditions: one reading (n=1) or average of 2 or more readings, read-out: PDE4B pIC50 (±about 0.5) (converted).
T1 construct: made in house
Assay type: biochemical
Procedure, shortened: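 Human recombinant PDE4B activity measured by SPA with [3H]cAMP at about 10 nM, 1 h at ambient temperature, enzyme set for ≤20% substrate hydrolysis, or by IMAP FP with Fl-cAMP at about 40 nM, 40 min at ambient temperature under linear conditions. Inhibition curves fitted; values reported as pIC50.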

T1 sequence (Q07343 1-564 isoform Q07343-2): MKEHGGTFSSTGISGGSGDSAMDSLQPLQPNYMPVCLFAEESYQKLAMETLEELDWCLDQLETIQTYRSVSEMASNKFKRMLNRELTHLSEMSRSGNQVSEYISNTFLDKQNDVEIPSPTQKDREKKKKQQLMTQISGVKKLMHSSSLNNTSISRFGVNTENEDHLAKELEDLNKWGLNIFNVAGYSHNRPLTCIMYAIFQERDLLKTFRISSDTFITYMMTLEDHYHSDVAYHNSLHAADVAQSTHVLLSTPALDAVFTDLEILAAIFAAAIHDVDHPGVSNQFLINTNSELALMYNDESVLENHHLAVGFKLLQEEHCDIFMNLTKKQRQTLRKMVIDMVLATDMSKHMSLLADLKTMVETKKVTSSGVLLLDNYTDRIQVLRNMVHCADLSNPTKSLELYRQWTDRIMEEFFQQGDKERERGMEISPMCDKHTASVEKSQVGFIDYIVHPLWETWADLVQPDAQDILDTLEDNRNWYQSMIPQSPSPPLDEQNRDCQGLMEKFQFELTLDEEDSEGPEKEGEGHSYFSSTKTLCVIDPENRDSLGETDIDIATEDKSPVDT

SMILES	IC50
CCn1ncc2c(NC3CCN(C(N)=O)CC3)c(CNC(=O)c3ccc4c(c3)CCC4)c(C)nc21 [Example 271, 4-[(5-{[(2,3-dihydro-1H-inden-5-ylcarbonyl)amino]methyl}-1-ethyl-6-methyl-1H-pyrazolo[3,4-b]pyridin-4-yl)amino]-1-piperidinecarboxamide]	10 to 100 pM
CCc1nc2c(cnn2CC)c(NC2CCOCC2)c1CNC(=O)c1cc(S(=O)(=O)c2ccccc2)ccc1OC [Example 179, N-{[1,6-diethyl-4-(tetrahydro-2H-pyran-4-ylamino)-1H-pyrazolo[3,4-b]pyridin-5-yl]methyl}-2-(methyloxy)-5-(phenylsulfonyl)benzamide]	10 to 100 pM
CCc1nc2c(cnn2CC)c(NC2CCOCC2)c1CN1Cc2occc2C1=O [Example 198, 5-{[1,6-diethyl-4-(tetrahydro-2H-pyran-4-ylamino)-1H-pyrazolo[3,4-b]pyridin-5-yl]methyl}-5,6-dihydro-4H-furo[2,3-c]pyrrol-4-one]	126 to 1000 pM
CCc1nc2c(cnn2CC)c(NC2CCN(C(N)=O)CC2)c1CNC(=O)c1ccc(C)cc1O [Example 245, 4-{[1,6-diethyl-5-({[(2-hydroxy-4-methylphenyl)carbonyl]amino}methyl)-1H-pyrazolo[3,4-b]pyridin-4-yl]amino}-1-piperidinecarboxamide]	10 to 100 pM
CCc1nc2c(cnn2CC)c(NC2CCOCC2)c1CNC(=O)c1ccoc1C [Example 195, N-{[1,6-diethyl-4-(tetrahydro-2H-pyran-4-ylamino)-1H-pyrazolo[3,4-b]pyridin-5-yl]methyl}-2-methyl-3-furancarboxamide]	126 to 1000 pM
CCc1nc2c(cnn2CC)c(NC2CCOCC2)c1CNC(=O)c1ccoc1 [Example 154, N-{[1,6-diethyl-4-(tetrahydro-2H-pyran-4-ylamino)-1H-pyrazolo[3,4-b]pyridin-5-yl]methyl}-3-furancarboxamide]	126 to 1000 pM
CCc1nc2c(cnn2CC)c(NC2CCN(C(N)=O)CC2)c1CNC(=O)c1ccc(NC(C)=O)cc1O [Example 241, 4-({5-[({[4-(acetylamino)-2-hydroxyphenyl]carbonyl}amino)methyl]-1,6-diethyl-1H-pyrazolo[3,4-b]pyridin-4-yl}amino)-1-piperidinecarboxamide]	10 to 100 pM
CCn1ncc2c(NC3CCN(C(N)=O)CC3)c(CNC(=O)c3ccc(C(C)C)cc3)c(C)nc21 [Example 263, 4-({1-ethyl-6-methyl-5-[({[4-(1-methylethyl)phenyl]carbonyl}amino)methyl]-1H-pyrazolo[3,4-b]pyridin-4-yl}amino)-1-piperidinecarboxamide]	10 to 100 pM

Second part, the compound after the results:

IC50	SMILES
126 to 1000 pM	CCn1ncc2c(NC3CCOCC3)c(CNC(=O)c3ccc(F)cc3F)c(C)nc21 [Example 312, N-{[1-ethyl-6-methyl-4-(tetrahydro-2H-pyran-4-ylamino)-1H-pyrazolo[3,4-b]pyridin-5-yl]methyl}-2,4-difluorobenzamide]
126 to 1000 pM	CCc1nc2c(cnn2CC)c(NC2CCOCC2)c1CNC(=O)N1CCCC1 [Example 289, N-{[1,6-diethyl-4-(tetrahydro-2H-pyran-4-ylamino)-1H-pyrazolo[3,4-b]pyridin-5-yl]methyl}-1-pyrrolidinecarboxamide]
126 to 1000 pM	CCn1ncc2c(NC3CCOCC3)c(CNC(=O)c3cnc(C)cn3)c(C(F)(F)F)nc21 [Example 348, N-{[1-Ethyl-4-(tetrahydro-2H-pyran-4-ylamino)-6-(trifluoromethyl)-1H-pyrazolo[3,4-b]pyridin-5-yl]methyl}-5-methyl-2-pyrazinecarboxamide]
126 to 1000 pM	CCc1nc2c(cnn2CC)c(NC2CCOCC2)c1CNC(=O)C1CCN(S(C)(=O)=O)CC1 [Example 341, N-{[1,6-diethyl-4-(tetrahydro-2H-pyran-4-ylamino)-1H-pyrazolo[3,4-b]pyridin-5-yl]methyl}-1-(methylsulfonyl)-4-piperidinecarboxamide]
